According to patent publication US4940713A, “Substituted glutamic acids” (Burroughs Wellcome Co., priority 1988, dated 1990):
Where two headings read alike, the source gives them in different places.

What was measured:
[1] = test system: MCF-7 breast adenocarcinoma; assay: Cytotoxicity Assay, MCF-7 (MTT dye reduction assay); format: cell-based; conditions: 72 hours
Method: Cells and Medium: MCF-7 breast adenocarcinoma, obtained from the American Type Culture Collection (ATCC) is grown in RPMI 1640 medium supplemented with 10 nM calcium leucovorin instead of folic acid as the folate source, 10% dialyzed fetal calf serum, penicillin, streptomycin and sodium pyruvate (110 μg/ml).
Cytotoxicity Assay: Cells are seeded into 96 well plates using a Perkin Elmer Pro/pette. MCF-7 cells are seeded at 15,000 cells per well in 150 μl of medium. Prior to the addition of drugs, cultures were incubated for 24 hours at 37°. Compounds were added at 2× concentration in 150 μl of medium and each concentration was assayed in triplicate. Cultures were incubated for 72 hours in a 37° humidified incubator at 5% CO2. Inhibition of cell growth was measured using the MTT dye reduction assay.
MTT Dye Reduction Assay: Cell dilutions for a standard curve were prepared from a 72 hour log-phase culture. Serial dilutions were seeded in triplicate in 96 well plates and incubated at 37° for 1 hour. MTT (3-(4,5-dimethylthiazol-2-yl)-2,5-diphenyltetrazolium bromide) was dissolved in phosphate buffered saline at 5 mg/ml and sonicated for 30 seconds. Using the Perkin Elmer Pro/pette, 200 μl of medium was removed and 100 μl of MTT added to the wells of the standard curve and test plates. Suspension cultures were spun for 5 minutes at 1000 rpm before removing medium from the wells. Plates were incubated for 1 hour at 37° on a platform shaker. Following this incubation, 100 μl of medium was removed from the wells and 100 μl of DMSO added to each well. The plates were sonicated for approximately 10 seconds to solubilize the precipitated formazan dye. The absorbance of each well was measured using a Titertek Multiskan MC microtiter plate reader at 570 nm with a reference wavelength of 750 nm.

[2] = test system: Spiroplasma citri; assay: Activity Against Spiroplasma citri, Sensitivity Test; format: cell-based; conditions: in words
Method: Frozen broth cultures are diluted to a predetermined titre of 100 color changing units for the test. Organisms are grown in Difco PPLO broth base with added serum, glucose, phenol red, ampicillin, thallium acetate and yeast extract. Incubation is at 32° C. Incubation with varying levels of the test compound in the above medium are performed in well plates and an amount of Spiroplasma citri cells is added that will produce a color change by a fixed time of growth. The lowest concentration of compound that fails to produce a color change or gives a two day delay in color change indicates minimum inhibitory concentration.

[3] = test system: Lactobacillus casei; assay: Activity against Lactobacillus casei; format: cell-based; conditions: in words
[4] = test system: yellow fever virus; conditions: in words
[5] = test system: Streptococcus faecium; assay: Activity against Streptococcus faecium; format: cell-based; conditions: in words
[6] = test system: mouse L cells
[7] = Stability on extended exposure to light; format: physicochemical; conditions: white powder
[8] = test system: mouse L cells; assay: Reversal of Cytotoxic Activity on mouse L cells

CN(CCCc1c(N)nc(N)[nH]c1=O)c1ccc(C(=O)N[C@@H](CCC(=O)O)C(=O)O)cc1 [Example 2, N-[4-[3-(2,4-diamino-1,6-dihydro-6-oxo-5-pyrimidinyl)-N-methylpropylamino]benzoyl]-L-glutamic acid]
inhibiting the growth of MCF-7 cells [1]: active in inhibiting the growth of MCF-7 cells
activity against Spiroplasma citri [2]: activity against the mycoplasma, Spiroplasma citri

Nc1nc(N)c(CCCNc2ccc(C(=O)N[C@@H](CCC(=O)O)C(=O)O)cc2)c(=O)[nH]1 [Example 1, N-[4-[3-(2,4-diamino-1,6-dihydro-6-oxo-5-pyrimidinyl)propylamino]benzoyl]-L-glutamic acid]
inhibiting the growth of MCF-7 cells [1]: active in inhibiting the growth of MCF-7 cells
activity against Spiroplasma citri [2]: activity against the mycoplasma, Spiroplasma citri
activity against Lactobacillus casei [3]: possess activity against certain bacterial organisms
activity against yellow fever virus [4]: some activity against yellow fever virus
activity against Streptococcus faecium [5]: possess activity against certain bacterial organisms

Nc1nc2c(c(=O)[nH]1)N(C=O)C(CNc1ccc(C(=O)N[C@@H](CCC(=O)O)C(=O)O)cc1)CN2 (stereo partly shown) [calcium leucovorin]
reversal of the cytotoxicity of the compound of Example 1 [6]: able to reverse the cytotoxicity of the compound of Example 1
reversal of the cytotoxicity of the compound of Example 3 [6]: able to reverse the cytotoxicity of the compound of Example 3

O=c1[nH]cnc2nc[nH]c12 [hypoxanthine]
reversal of the cytotoxicity of the compound of Example 1 [6]: able to reverse the cytotoxicity of the compound of Example 1
reversal of the cytotoxicity of the compound of Example 3 [6]: able to reverse the cytotoxicity of the compound of Example 3

CN(CCc1c(N)nc(N)[nH]c1=O)c1ccc(C(=O)N[C@@H](CCC(=O)O)C(=O)O)cc1 [Example 5, N-[4-[2-(2,4-diamino-1,6-dihydro-6-oxo-5-pyrimidinyl)ethyl-N-methylamino]benzoyl]-L-glutamic acid]
appearance upon extended exposure to light [7]: became tan upon extended exposure to light

Nc1nc(N)c(CCCN(C=O)c2ccc(C(=O)N[C@@H](CCC(=O)O)C(=O)O)cc2)c(=O)[nH]1 [Example 3, N-[4-[3-(2,4-Diamino-1,6-dihydro-6-oxo-5-pyrimidinyl)-N-formylpropylamino]benzoyl]-L-glutamic acid]
inhibiting the growth of MCF-7 cells [1]: active in inhibiting the growth of MCF-7 cells
activity against Spiroplasma citri [2]: activity against the mycoplasma, Spiroplasma citri
activity against yellow fever virus [4]: some activity against yellow fever virus

NC(=O)c1ncn([C@@H]2O[C@H](COP(=O)(O)O)[C@@H](O)[C@H]2O)c1N [AICAR, 5-aminoimidazole-4-carboxamide ribonucleotide]
reversal of the cytotoxicity of the compound of Example 3 [8]: able to reverse the cytotoxicity of the compound of Example 3
